From patent US11452758B2, “Antimicrobial peptide derived from LL37 peptide and uses thereof” (INDUSTRY-ACADEMIC COOPERATION FOUNDATION, CHOSUN UNIVERSITY, priority 2018, dated 2022)
Values after ≈ are worked out from the molar mass of the structure shown. Where a SMILES comes first, the peptide text is derived from it.

Assays:
A. baumannii #2 = format: cell-based, Acinetobacter baumannii; conditions: #2
Source text: (§1) To compare the antimicrobial activity among the peptides produced by the method of Example 1, the inventors of the present invention measured the minimal growth inhibitory concentration (MIC), which is minimum concentration of the peptide not allowing any […] of bacterial cells.
(§2) Specifically, the bacterial strains described in the following Table 2 were purchased and cultured to a mid-log phase in MHB (Mueller Hinton Broth) medium. Then, after dilution to bacterial cell concentration of 2×10^5 cells/50 μl, the cells were inoculated to a microtiter plate (NUNC, USA). Thereafter, LL37-1, LL37-2, LL37-3 or LL37-4 peptide which has been synthesized in Example 1 above was subjected to serial dilution, ½ times for each, in a 96-well plate. After adding the peptides in an amount of 50 μl to the cell plate, the cells were cultured for 18 hours at 37° C. By using a microtiter plate reader (Merck Elisa reader, Germany), the absorbance was measured at a wavelength of 600 nm to determine the MIC value of each bacterial strain. As a control group, LL37 as a mother peptide was used and subjected to the same process as above to determine the MIC value of each strain.

A. baumannii #12 = format: cell-based, Acinetobacter baumannii; conditions: #12
Source text: as §1, §2

A. baumannii #5 = format: cell-based, Acinetobacter baumannii; conditions: #5
Source text: as §1, §2

A. baumannii #3 = format: cell-based, Acinetobacter baumannii; conditions: #3
Source text: as §1, §2

A. baumannii #13 = format: cell-based, Acinetobacter baumannii; conditions: #13
Source text: as §1, §2

A. baumannii #19 = format: cell-based, Acinetobacter baumannii; conditions: #19
Source text: as §1, §2

A. baumannii #11 = format: cell-based, Acinetobacter baumannii; conditions: #11
Source text: as §1, §2

A. baumannii #10 = format: cell-based, Acinetobacter baumannii; conditions: #10
Source text: as §1, §2

A. baumannii KCTC 2508 = format: cell-based, Acinetobacter baumannii; conditions: KCTC 2508, 18 h
Source text: as §1, §2

A. baumannii #8 = format: cell-based, Acinetobacter baumannii; conditions: #8
Source text: as §1, §2

A. baumannii #9 = format: cell-based, Acinetobacter baumannii; conditions: #9
Source text: as §1, §2

A. baumannii #4 = format: cell-based, Acinetobacter baumannii; conditions: #4
Source text: as §1, §2

P. aeruginosa ATCC 27853 = format: cell-based, Pseudomonas aeruginosa; conditions: ATCC 27853, 18 h
Source text: as §1, §2

S. typhimurium KCTC 1925 = format: cell-based, Salmonella typhimurium; conditions: KCTC 1925, 18 h
Source text: as §1, §2

[1] = tested on: L. monocytogenes KCTC 3710; format: cell-based, Listeria monocytogenes; conditions: KCTC 3710, 18 h
Source text: as §1, §2

[2] = Cytotoxicity in normal cell line (MTT); format: cell-based, human; conditions: human
Experimental: To determine the cytotoxicity of the peptides produced by the method of Example 1 in normal cell line, cytotoxicity was measured by using normal human keratinocyte cell line (HaCaT) and normal human fibroblast cell line (Hs27).
Specifically, normal human keratinocyte (HaCaT) cells and normal human fibroblast (Hs27) cells, which have been cultured in DMEM medium containing 10% FBS (fetal bovine serum), were aliquoted in a microtiter plate to have 1×10^4 cells per well. After culturing them for 24 hours, the cells were subjected to a treatment with LL37, LL37-1, LL37-2, LL37-3 or LL37-4 peptide, each at concentration of 0.5, 1, 2, 4, 8, 16 or 32 μM/well, followed by reaction for 24 hours in a 5% CO2 incubator. After culture, a reaction solution containing 5 mg/ml MTT (Thiazolyl Blue Tetrazolium Bromide) dissolved in phosphate buffered saline (PBS) was added in an amount of 10 μl to each well and the reaction was allowed to occur for 1 hour. After that, the supernatant was discarded, and, by dissolving MTT crystals that are formed by adding 200 μl DMSO (dimethyl sulfoxide), the absorbance at 570 nm was measured to determine the cell survival ability.

E. coli ATCC 25922 = format: cell-based, Escherichia coli; conditions: ATCC 25922, 18 h
Source text: as §1, §2

S. aureus ATCC 25923 = format: cell-based, Staphylococcus aureus; conditions: ATCC 25923, 18 h
Source text: as §1, §2

With CC[C@H](C)[C@H](NC(=O)[C@H](CCCNC(=N)N)NC(=O)[C@H](CCC(N)=O)NC(=O)[C@@H](NC(=O)[C@@H](NC(=O)[C@H](CCCNC(=N)N)NC(=O)[C@H](CCCCN)NC(=O)[C@H](Cc1ccccc1)NC(=O)[C@H](CCC(=O)O)NC(=O)[C@@H](N)CCCCN)[C@@H](C)CC)C(C)C)C(=O)N[C@@H](CCCCN)C(=O)N[C@@H](CC(=O)O)C(=O)N[C@@H](Cc1ccccc1)C(=O)N[C@@H](CC(C)C)C(=O)N[C@@H](CCCNC(=N)N)C(=O)N[C@@H](CC(N)=O)C(N)=O [LL37-1, KEFKRIVQRIKDFLRN-NH2] (H-KEFKRIVQRIKDFLRN-NH2) as the molecule, how does the Minimal inhibitory concentration (A. baumannii #2) read?
Its Minimal inhibitory concentration is 4 µM (≈ 8.36 µg/mL).

What about the Minimal inhibitory concentration (A. baumannii #12) of the same molecule?
Its Minimal inhibitory concentration is 8 µM (≈ 16.7 µg/mL).

What about the Minimal inhibitory concentration (A. baumannii #5) of the same molecule?
The Minimal inhibitory concentration was 4 µM (≈ 8.36 µg/mL).

And the Minimal inhibitory concentration (A. baumannii #3)?
Its Minimal inhibitory concentration is 8 µM (≈ 16.7 µg/mL).

What about the Minimal inhibitory concentration (A. baumannii #13) of the same molecule?
The Minimal inhibitory concentration was 4 µM (≈ 8.36 µg/mL).

What about the Minimal inhibitory concentration (A. baumannii #19) of the same molecule?
The Minimal inhibitory concentration was 8 µM (≈ 16.7 µg/mL).

And the Minimal inhibitory concentration (A. baumannii #11)?
The Minimal inhibitory concentration was 4 µM (≈ 8.36 µg/mL).

And the Minimal inhibitory concentration (A. baumannii #10)?
The Minimal inhibitory concentration was 4 µM (≈ 8.36 µg/mL).

What about the Minimal inhibitory concentration (A. baumannii KCTC 2508) of the same molecule?
Its Minimal inhibitory concentration is 16 µM (≈ 33.4 µg/mL).

What about the Minimal inhibitory concentration (A. baumannii #8) of the same molecule?
Its Minimal inhibitory concentration is 4 µM (≈ 8.36 µg/mL).

What about the Minimal inhibitory concentration (A. baumannii #9) of the same molecule?
Its Minimal inhibitory concentration is 4 µM (≈ 8.36 µg/mL).

What about the Minimal inhibitory concentration (A. baumannii #4) of the same molecule?
The Minimal inhibitory concentration was 8 µM (≈ 16.7 µg/mL).

What about the Minimal inhibitory concentration (P. aeruginosa ATCC 27853) of the same molecule?
Its Minimal inhibitory concentration is 16 µM (≈ 33.4 µg/mL).

And the Minimal inhibitory concentration (S. typhimurium KCTC 1925)?
Its Minimal inhibitory concentration is 32 µM (≈ 66.9 µg/mL).

And the Minimal inhibitory concentration [1]?
The Minimal inhibitory concentration was 128 µM (≈ 267 µg/mL).

And the viability at 24 h, 0.5 µM ([2]; HaCaT keratinocyte cells)?
Its viability at 24 h, 0.5 µM is 97%.

What about the viability at 24 h, 1 µM ([2]; HaCaT keratinocyte cells) of the same molecule?
The viability at 24 h, 1 µM was 103%.

What about the viability at 24 h, 2 µM ([2]; HaCaT keratinocyte cells) of the same molecule?
Its viability at 24 h, 2 µM is 98%.

And the viability at 24 h, 4 µM ([2]; HaCaT keratinocyte cells)?
Its viability at 24 h, 4 µM is 99%.

What about the viability at 24 h, 8 µM ([2]; HaCaT keratinocyte cells) of the same molecule?
Its viability at 24 h, 8 µM is 103%.

And the viability at 24 h, 16 µM ([2]; HaCaT keratinocyte cells)?
The viability at 24 h, 16 µM was 101%.

What about the viability at 24 h, 32 µM ([2]; HaCaT keratinocyte cells) of the same molecule?
Its viability at 24 h, 32 µM is 104%.

And the viability at 24 h, 0.5 µM ([2]; Hs27 fibroblast cells)?
Its viability at 24 h, 0.5 µM is 100%.

And the viability at 24 h, 1 µM ([2]; Hs27 fibroblast cells)?
Its viability at 24 h, 1 µM is 100%.

And the viability at 24 h, 2 µM ([2]; Hs27 fibroblast cells)?
Its viability at 24 h, 2 µM is 103%.

What about the viability at 24 h, 4 µM ([2]; Hs27 fibroblast cells) of the same molecule?
The viability at 24 h, 4 µM was 95%.

What about the viability at 24 h, 8 µM ([2]; Hs27 fibroblast cells) of the same molecule?
Its viability at 24 h, 8 µM is 96%.

And the viability at 24 h, 16 µM ([2]; Hs27 fibroblast cells)?
Its viability at 24 h, 16 µM is 92%.

What about the viability at 24 h, 32 µM ([2]; Hs27 fibroblast cells) of the same molecule?
The viability at 24 h, 32 µM was 95%.

And the Minimal inhibitory concentration (E. coli ATCC 25922)?
The Minimal inhibitory concentration was 128 µM (≈ 267 µg/mL).

And the Minimal inhibitory concentration (S. aureus ATCC 25923)?
The Minimal inhibitory concentration was 32 µM (≈ 66.9 µg/mL).
